In US6362179B1, “Salts of an optically-active sulfoxide derivative” (Sankyo Company, Limited, priority 1997, dated 2002):

Key:
NK1 receptors = NK1 receptors (Homo sapiens, UniProt P25103); assay: Pharmacological test of antagonistic activity against NK1 receptors in vitro; details: test made by the present inventors
NK2 receptor = biological target: T1, NK2 receptor (Cavia porcellus, UniProt Q64077); assay: Inhibitory effect against bronchoconstriction induced with [Nle10]-NKA[4-10]; format: in vivo, guinea pig; details: for ID50 (mg/kg, p.o.): male Hartley guinea pigs, oral administration one hour before [Nle10]-NKA[4-10] (4 μg/kg i.v.), AUC of airway pressure
T1 construct: bronchoconstriction induced with [Nle^10]-NKA[4-10], an NK2 receptor agonist; from tissue; host or cells: living male Hartley guinea pig; airway pressure (Konzett-Roessler)
T1 sequence (Q64077 1-402): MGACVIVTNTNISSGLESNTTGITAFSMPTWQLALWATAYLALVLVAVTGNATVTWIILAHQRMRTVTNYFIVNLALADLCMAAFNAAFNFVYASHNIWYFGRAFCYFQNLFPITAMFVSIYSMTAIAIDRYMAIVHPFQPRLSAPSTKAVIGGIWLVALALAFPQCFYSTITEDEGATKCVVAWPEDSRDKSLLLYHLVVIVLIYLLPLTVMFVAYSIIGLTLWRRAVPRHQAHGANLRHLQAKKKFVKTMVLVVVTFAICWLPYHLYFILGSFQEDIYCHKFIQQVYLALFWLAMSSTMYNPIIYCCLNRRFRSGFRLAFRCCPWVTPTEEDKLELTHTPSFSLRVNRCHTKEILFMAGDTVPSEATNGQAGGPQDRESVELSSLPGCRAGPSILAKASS

NK1 receptor = biological target: T2, NK1 receptor (Cavia porcellus, UniProt P30547); assay: Inhibitory effect against increased vascular permeability induced by substance P; format: in vivo, guinea pig; details: male Hartley guinea pigs; for Inhibitory rate (%) on oral administration at 3.3 mg/kg: 3.3 mg/kg p.o. 1 hour before SP, pigment leakage; for ID50 (mg/kg, p.o.): oral administration 1 hour before SP (1 μg/kg i.v.), Evans blue leakage into primary bronchus
T2 construct: increased vascular permeability induced by substance P (SP), an NK1 receptor agonist; from tissue; host or cells: living male Hartley guinea pig; pigment leakage at the primary bronchus
T2 sequence (P30547 whole entry): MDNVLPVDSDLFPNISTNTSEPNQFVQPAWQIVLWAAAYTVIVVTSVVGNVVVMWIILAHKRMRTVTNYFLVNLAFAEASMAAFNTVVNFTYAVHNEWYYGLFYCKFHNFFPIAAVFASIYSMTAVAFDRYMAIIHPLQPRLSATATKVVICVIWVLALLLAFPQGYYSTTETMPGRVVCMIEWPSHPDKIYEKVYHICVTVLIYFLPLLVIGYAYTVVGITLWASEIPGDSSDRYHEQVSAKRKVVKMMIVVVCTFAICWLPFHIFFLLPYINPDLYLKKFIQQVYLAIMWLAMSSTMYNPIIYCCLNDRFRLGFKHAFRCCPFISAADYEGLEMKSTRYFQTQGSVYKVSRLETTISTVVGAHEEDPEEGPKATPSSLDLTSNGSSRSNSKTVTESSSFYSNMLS
Experimental: Inhibitory Effect Against Increased Vascular Permeability
The inhibitory effect on increased vascular permeability induced by substance P (SP), an NK1 receptor agonist, was assessed based on the amount of pigment leakage as an index using guinea pigs (body weight: approx. 400 g, male Hartley guinea pigs).
A pigment (Evans blue: 40 mg/kg) was administered to the femoral vein of a guinea pig anesthetized with pentobarbital (30 mg/kg, i.p.) and immediately after that, SP (1 μg/kg) was intravenously injected to induce accentuation of vascular permeability. Fifteen minutes after the injection, the guinea pig was sacrificed under anesthesia with chloroform and the amount of the pigment leaked into the primary bronchus site was measured in accordance with Harada's method (J. Pharm. Pharmacol. 23, 218(1971)). A test substance was suspended in a 0.5% tragacanth suspension and orally administered to a guinea pig 1 hour before induction by SP. Its inhibitory action was determined by the ratio of the pigment leaked from the test-substance-administered group to that from the non-administered group. In Table 1, 50% inhibitory dose (ID50) and inhibitory rate in the case of oral administration at 3.3 mg/kg are shown.

Chain of NK1 receptors (P25103 whole entry): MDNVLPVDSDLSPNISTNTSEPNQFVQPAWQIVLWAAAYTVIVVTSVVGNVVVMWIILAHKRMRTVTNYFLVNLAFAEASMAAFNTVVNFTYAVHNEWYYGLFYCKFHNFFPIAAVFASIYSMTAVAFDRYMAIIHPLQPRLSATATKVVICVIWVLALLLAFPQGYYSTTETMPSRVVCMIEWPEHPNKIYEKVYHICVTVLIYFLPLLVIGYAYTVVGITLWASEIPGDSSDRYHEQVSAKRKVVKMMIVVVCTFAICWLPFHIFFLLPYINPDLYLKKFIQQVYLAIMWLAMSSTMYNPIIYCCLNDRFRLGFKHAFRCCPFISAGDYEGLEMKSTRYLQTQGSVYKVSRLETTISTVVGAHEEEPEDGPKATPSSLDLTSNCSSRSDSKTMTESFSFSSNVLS

Structure (SMILES) | antagonistic activity against NK1 receptors in vitro (NK1 receptors) | ID50 (mg/kg, p.o.) (NK2 receptor) [mg/kg] | Inhibitory rate (%) on oral administration at 3.3 mg/kg (NK1 receptor) [%] | ID50 (mg/kg, p.o.) (NK1 receptor) | ED50 (NK2 receptor; guinea pig, guinea pigs, intravenous injection of test substance, read-out: ID50 (the source's name)) [mg/kg]
CN(C[C@@H](CCN1CCC2(CCc3ccccc32)CC1)c1ccc(Cl)c(Cl)c1)C(=O)c1ccccc1 [B] | markedly weak | – | – | – | –
COc1cc(C(=O)N2CCO[C@](CCN3CCC4(CC3)c3ccccc3C[S@@+]4[O-])(c3ccc(Cl)c(Cl)c3)C2)cc(OC)c1OC.Cl [Compound of Ex. 1, 1-{2-[(2R)-(3,4-Dichlorophenyl)-4-(3,4,5-trimethoxybenzoyl)morpholin-2-yl]ethyl}spiro[benzo(c)thiophene-1(3H),4′-piperidin]-(2S)-oxide hydrochloride] | – | 0.51 | 48.0 | 5.1 mg/kg | –
COc1cc(C(=O)N2CCOC(CCN3CCC4(CC3)c3ccccc3C[S+]4[O-])(c3ccc(Cl)c(Cl)c3)C2)cc(OC)c1OC.O=C(O)/C=C/C(=O)O [Compound of Ex. 2, 1-{2-[(2R)-(3,4-Dichlorophenyl)-4-(3,4,5-trimethoxybenzoyl)morpholin-2-yl]ethyl}spiro[benzo(c)thiophene-1(3H),4′-piperidin]-(2S)-oxide fumarate] | – | 0.54 | 46.8 | – | –
Cc1cc(C)cc(C(=O)N(C)C[C@@H](CCN2CCC3(CC2)CN(S(C)(=O)=O)c2ccccc23)c2ccc(Cl)c(Cl)c2)c1 [Compound A, reference compound] | – | – | – | greater than 10 mg/kg | > 10
